The results in this text go back to a melting point compilation (Tetko et al.; mined from patent text by program, amines drawn as free bases though some values may be those of a salt).

By melting point is commonly meant the temperature of the solid-liquid transition.

Turning to `COc1ccc(C2=CCN(CCC(O)c3ccc(C#N)cc3)CC2)cc1` (configuration not stated), the melting point was in the range of 144 to 145 °C.
The value for `COc1cc2c(cc1O)/C(=N/OCc1ccc([N+](=O)[O-])cc1)CC2` was 146 to 149 °C; that for `O=C(c1ccc2ccn(CCOc3ccc(CC(OCC(F)(F)F)C(=O)O)cc3)c2n1)C1CC1` (configuration not stated) was 113 °C.
The value for `Cc1c(-c2cccs2)nn2cc[nH]c12` was 205 to 208 °C; that for `COc1ccc(S(=O)(=O)C(C)(Cc2ccc(OCCN3CCCCCC3)cc2)C(=O)NO)cc1` (configuration not stated) was 68 °C.
The value for `COc1ccc(CC2c3c(cc(OC)c(OC)c3O)CCN2C)cc1` (configuration not stated) was 112 to 114 °C; that for `CC(C)(C)OC(=O)c1ccc(C(=O)NS(=O)(=O)c2ccc(Cl)cc2)cc1` was above 300 °C; that for `Nc1ccc(Cn2c(=O)c3c(-c4noc(C5CC5)n4)ncn3c3ccccc32)cc1` was 246 to 248 °C.
`CN(Cc1cc(C(C)(C)C)c(O)c(C(C)(C)C)c1)n1ccnc1`: the melting point turned out to be 139 °C.
The value for `CC(C)CC(Oc1c(Br)cc(-c2ccc(-c3c(Cc4ccccc4)oc4ccccc34)cc2)cc1Br)C(=O)O` (configuration not stated) was 81 to 83 °C; that for `Cc1cc2c(NCCc3cccc(C(F)(F)F)c3)ncnc2o1` was 119 °C; that for `CCC(=O)NCc1ccc(NC(=O)/C=C/c2cnn(C)c2-c2ccc(F)cc2)cc1` was 271 to 272 °C.
The value for `CCSc1cc(C)nc(SCC)c1NC(=O)CCCCSc1nc2cccc(C(F)(F)F)c2o1` was 155 to 156 °C; that for `CC1(C)OC(=O)Nc2ccc(-c3cccc(C#CC#N)c3)cc21` was 212 to 213 °C.
In the case of `Cc1cc(SC(C)C)c(NC(=O)CCCCCSc2nc3ccccc3o2)c(SC(C)C)n1`, the melting point was in the range of 98 to 100 °C.
Turning to `CN(C)c1cccc(Oc2cccc(-c3cccc(C(=O)NCCC#N)c3)n2)c1`, the melting point fell in the range of 95 to 96 °C.
`CCOC(=O)C=C(C)C=CC=C(C)C=Cc1c(C)cc(C)c(Cl)c1C` returned a melting point of 84 to 85 °C.
The value for `Cc1nc2c(N)cc(Br)cc2n1C` was 206 to 209 °C.
`CSC(=Nc1c(C)nn(C)c1C)Nc1cc(Cl)ccc1C` came in with a melting point of 134 to 135 °C.
The value for `COC(=O)C(Cc1ccc(-c2nc3ccc(OC)cc3n2C)cc1)N=[N+]=[N-]` (configuration not stated) was 105 to 107 °C; that for `Cc1c(Nc2c(C#N)cncc2-c2cc3cc(CN4CCN(C)CC4)ccc3o2)ccc2[nH]ccc12` was 162 to 165 °C.
Compound `COc1ccc(S(N)(=O)=O)cc1C(=O)C(C)N=[N+]=[N-]` (configuration not stated) had a melting point of 113 to 114 °C.
The value for `CCOC(=O)c1[nH]c2cc(Cl)cc(Cl)c2c1I` was 218 to 220 °C; that for `COC(=O)c1sc(N)cc1NC(C)=O` was 162 to 163 °C.
The value for `O=S(=O)(c1ccccc1)N1CCC(C(=NCc2ccc(F)cc2)c2ccc(F)cc2)CC1` was 114 to 116 °C.
The value for `O[C@@H](CNCc1ccccc1)C1CCCCC1` was 56 to 58 °C.
In the case of `NS(=O)(=O)c1ccc(NC(=O)CCl)c(Cl)c1`, the melting point was in the range of 162 to 164 °C.
The value for `O=C(O)CCC(=NO)c1ccc(-c2ccc(F)cc2)cc1` was 152 to 153 °C; that for `Cc1cc(-c2c(-c3ccc(F)cc3)ncn2CC2CC2)ccn1` was 141 to 142 °C; that for `Cc1cccc(C(=O)O)c1Nc1ccccc1C(=O)O` was 258 to 259 °C.
The value for `O=C(O)c1cn(-c2ccc(F)cc2)c(-c2ccc(N=Cc3ccc([N+](=O)[O-])o3)cc2)cc1=O` was 129 to 131 °C; that for `Cn1cc(C(=O)NCc2ccc(Cl)cc2)c(=O)c2cc(CCCCCO)oc21` was 151 to 152 °C.
The value for `COC(=O)c1ccc(NC(=O)c2cc(C(C)C)c(C(C)C)o2)cc1Cl` was 123 to 124 °C; that for `CCc1cc2c(cc1CC)C(=O)CCC2` was 93 °C; that for `O=P(c1ccccc1)(c1ccccc1)c1nc2ccccc2nc1P(=O)(c1ccccc1)c1ccccc1` was 258 to 272 °C.
In turn, `Cc1cccc(N2CCN(CCCCc3ccc(C4CCC(=O)N4)cc3)CC2)c1` (configuration not stated) displayed a melting point of 114 to 116 °C.
The value for `CS(=O)(=O)c1ccc(C[C@@H](NC(=O)OCc2ccccc2)[C@H](O)C(=O)O)cc1` was 168 to 172 °C; that for `Nc1ccc(-c2noc(-c3cnn4c(C(F)(F)F)cc(-c5ccc(Cl)cc5)nc34)n2)cn1` was 253 °C.
The value for `Nc1ccc(S(=O)C(F)(F)C(F)F)cc1F` (configuration not stated) was 67 to 69 °C; that for `COCn1ccnc1C(O)(c1ccccc1)c1ccccc1C(C)(C)C` (configuration not stated) was 149 to 150 °C; that for `c1ccc(CN2CCC(Nc3ccc4[nH]ncc4c3)CC2)cc1` was 150 to 152 °C.
The value for `CN1CCCC1=NC(=O)Nc1c(Cl)cc(Cl)cc1Cl` was 160 to 162 °C.
`C[C@H]1CCCC(C)(C)[C@@H]1C(=O)c1ccc(C(F)(F)F)cc1` showed a melting point of 16 to 20 °C.
The value for `O=C1C(=Cc2ccccc2)SC(=S)N1N=c1sc2ccccc2s1` was 288 to 289 °C; that for `O=c1[nH]c(-c2csc3ccccc23)nc2ccc(N3CCCCC3)cc12` was above 300 °C; that for `Nc1cccc(-n2c(=O)c(Cc3cccnc3)nc3cccnc32)c1` was 168 to 170 °C.
`CS(=O)c1ccc(Oc2ccc(Cl)c(Cl)c2)nc1C(N)=O` (configuration not stated) yielded a melting point of 185 to 187 °C.
Turning to `COc1c2c(c(OC)c(OC)c1OC)CCC(CCn1ccccc1=O)CC2`, the melting point lay within 84 to 87 °C.
For the compound `COc1cc(C=CC(=O)c2ccccc2)cc(C(F)(F)F)c1O`, the melting point was 166 to 168 °C.
The value for `Cn1ncc(C(=O)O)c1C(=O)Nc1ccc2nc(-c3ccccc3)nn2c1` was 259 °C; that for `Cc1ccc(Oc2ccc3c4c(cccc24)C2=NC(=O)C(C#N)=C23)cc1` was 232 to 233 °C; that for `CC(CC[Si](CCC(C)[N+](=O)[O-])(c1ccccc1)c1ccccc1)[N+](=O)[O-]` (configuration not stated) was 84 to 85 °C.
The value for `Nc1cc(-n2cc(C(=O)O)c(=O)c3cc(F)c(NCCO)c(Cl)c32)c(F)cc1F` was 215 to 219 °C.
The value for `O=C(Nc1ccc(OCCN2CCCC2=O)c2ccccc12)c1cc(F)cc(N2CCCCC2)c1` was 161 to 162 °C.
For `CCCCCC(C)C(C)c1cc(O)c2c(c1)oc(=O)c1ccncc12` (configuration not stated), the melting point was in the range of 122 to 123 °C.
`CCn1ncc(C(=O)c2ccc(S(C)(=O)=O)c(OCCOC)c2Cl)c1O` returned a melting point of 159 to 160 °C.
The value for `COc1cc(C(=O)O)cc2c1oc1ccccc12` was 229 to 240 °C; that for `CC(C)OC(=O)N1CCC(c2nc3cc(-c4ccc(C(N)=O)cn4)ccc3o2)CC1` was 227 to 230 °C.
The value for `O=C(O)c1ccc(Cn2cc(C3c4ccccc4C=Cc4ccccc43)c(=S)[nH]c2=O)o1` was 178 to 180 °C; that for `CCc1c(-c2ccccc2)nn(C)c1-c1ccccc1` was 80 to 81 °C.
Turning to `CCCc1nn(C)c2c(=O)[nH]c(Cc3ccc(NC(=O)/C=C/OCC)cc3)nc12`, the melting point was 241 to 243 °C.
The value for `O=C(NC(=O)c1c(Cl)cccc1Cl)Nc1ccc(OC(F)(F)F)cc1` was 202 °C.
